Test results as given in ChEMBL document CHEMBL1142499 (Bioorg Med Chem Lett, 2008).

Columns and labels:
[1] = Half life in orally and iv dosed Squirrel monkey; assay type: ADME, organism-based, Saimiri sciureus; settings: in vivo
[2] = Half life in orally and iv dosed rat; assay type: ADME, organism-based; settings: in vivo
[3] = Cmax in po dosed squirrel monkey assessed after first episode of emesis; assay type: ADME, organism-based, Saimiri sciureus; design: route oral; settings: in vivo
[4] = Bioavailability in orally and iv dosed rat; assay type: ADME, organism-based; settings: in vivo, po
[5] = system: Ovis aries; experiment: Inhibition of late-phase antigen-induced bronchoconstriction in ascaris-sensitive sheep at 0.5 mg/kg, iv daily for 4 days and antigen challenged after 2 hrs post dose on 4th day; assay type: functional
[6] = Bioavailability in orally and iv dosed dog; assay type: ADME, organism-based, Canis lupus familiaris; settings: in vivo, po
[7] = Half life in orally and iv dosed dog; assay type: ADME, organism-based, Canis lupus familiaris; settings: in vivo
[8] = Bioavailability in orally and iv dosed Squirrel monkey; assay type: ADME, organism-based, Saimiri sciureus; settings: in vivo, po
[9] = molecular target: 3',5'-cyclic-AMP phosphodiesterase 4A (Homo sapiens, UniProt P27815); experiment: Intrinsic inhibition of GST-fused human PDE4A expressed in SF9 cells
[10] = molecular target: Voltage-gated inwardly rectifying potassium channel KCNH2 (Homo sapiens, UniProt Q12809)
[11] = system: Blood; experiment: Inhibition of LPS-induced TNFalpha production in human whole blood; assay type: functional, tissue-based
[12] = Ratio of emesis Cmax in Squirrel monkey at 2 mg/kg, po to IC50 for LPS-induced TNFalpha production in Squirrel monkey whole blood; assay type: functional, Saimiri sciureus
[13] = molecular target: Cytochrome P450 2C9 (Homo sapiens, UniProt P11712); experiment: Inhibition of CYP2C9; assay type: ADME
[14] = system: Cavia porcellus; experiment: Inhibition of ovalbumin-induced bronchoconstriction in conscious guinea pig at 0.03 mg/kg, ip administered 30 mins before ovalbumin challenge; assay type: functional; settings: route intraperitoneal
[15] = system: Blood; experiment: Inhibition of LPS-induced TNFalpha production in Squirrel monkey whole blood; assay type: functional, tissue-based; settings: Saimiri sciureus

Sequence of 3',5'-cyclic-AMP phosphodiesterase 4A (P27815 whole entry, the tested form may be a part): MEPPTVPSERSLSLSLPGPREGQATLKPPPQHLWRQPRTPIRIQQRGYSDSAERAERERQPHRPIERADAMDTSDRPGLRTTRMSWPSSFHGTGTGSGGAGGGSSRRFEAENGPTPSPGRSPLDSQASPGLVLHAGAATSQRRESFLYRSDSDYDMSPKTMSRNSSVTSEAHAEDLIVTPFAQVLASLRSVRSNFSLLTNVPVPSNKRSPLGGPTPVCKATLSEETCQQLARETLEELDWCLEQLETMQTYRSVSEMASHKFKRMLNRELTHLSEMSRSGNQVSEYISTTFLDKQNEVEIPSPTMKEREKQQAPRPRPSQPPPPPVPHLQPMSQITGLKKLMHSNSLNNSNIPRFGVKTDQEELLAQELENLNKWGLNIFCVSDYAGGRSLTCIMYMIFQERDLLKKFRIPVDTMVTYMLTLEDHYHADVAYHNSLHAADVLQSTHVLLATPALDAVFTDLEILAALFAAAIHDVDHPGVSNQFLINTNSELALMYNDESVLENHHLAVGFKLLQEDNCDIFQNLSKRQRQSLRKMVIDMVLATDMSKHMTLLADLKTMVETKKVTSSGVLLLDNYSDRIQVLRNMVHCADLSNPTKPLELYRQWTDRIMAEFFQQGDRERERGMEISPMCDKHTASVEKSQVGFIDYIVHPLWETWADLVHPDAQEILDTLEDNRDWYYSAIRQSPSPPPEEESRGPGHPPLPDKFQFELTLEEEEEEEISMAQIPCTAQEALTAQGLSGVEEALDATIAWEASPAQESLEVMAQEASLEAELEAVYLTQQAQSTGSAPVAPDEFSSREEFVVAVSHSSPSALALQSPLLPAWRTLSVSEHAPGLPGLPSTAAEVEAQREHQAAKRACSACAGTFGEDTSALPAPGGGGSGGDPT
Sequence of Voltage-gated inwardly rectifying potassium channel KCNH2 (Q12809 whole entry): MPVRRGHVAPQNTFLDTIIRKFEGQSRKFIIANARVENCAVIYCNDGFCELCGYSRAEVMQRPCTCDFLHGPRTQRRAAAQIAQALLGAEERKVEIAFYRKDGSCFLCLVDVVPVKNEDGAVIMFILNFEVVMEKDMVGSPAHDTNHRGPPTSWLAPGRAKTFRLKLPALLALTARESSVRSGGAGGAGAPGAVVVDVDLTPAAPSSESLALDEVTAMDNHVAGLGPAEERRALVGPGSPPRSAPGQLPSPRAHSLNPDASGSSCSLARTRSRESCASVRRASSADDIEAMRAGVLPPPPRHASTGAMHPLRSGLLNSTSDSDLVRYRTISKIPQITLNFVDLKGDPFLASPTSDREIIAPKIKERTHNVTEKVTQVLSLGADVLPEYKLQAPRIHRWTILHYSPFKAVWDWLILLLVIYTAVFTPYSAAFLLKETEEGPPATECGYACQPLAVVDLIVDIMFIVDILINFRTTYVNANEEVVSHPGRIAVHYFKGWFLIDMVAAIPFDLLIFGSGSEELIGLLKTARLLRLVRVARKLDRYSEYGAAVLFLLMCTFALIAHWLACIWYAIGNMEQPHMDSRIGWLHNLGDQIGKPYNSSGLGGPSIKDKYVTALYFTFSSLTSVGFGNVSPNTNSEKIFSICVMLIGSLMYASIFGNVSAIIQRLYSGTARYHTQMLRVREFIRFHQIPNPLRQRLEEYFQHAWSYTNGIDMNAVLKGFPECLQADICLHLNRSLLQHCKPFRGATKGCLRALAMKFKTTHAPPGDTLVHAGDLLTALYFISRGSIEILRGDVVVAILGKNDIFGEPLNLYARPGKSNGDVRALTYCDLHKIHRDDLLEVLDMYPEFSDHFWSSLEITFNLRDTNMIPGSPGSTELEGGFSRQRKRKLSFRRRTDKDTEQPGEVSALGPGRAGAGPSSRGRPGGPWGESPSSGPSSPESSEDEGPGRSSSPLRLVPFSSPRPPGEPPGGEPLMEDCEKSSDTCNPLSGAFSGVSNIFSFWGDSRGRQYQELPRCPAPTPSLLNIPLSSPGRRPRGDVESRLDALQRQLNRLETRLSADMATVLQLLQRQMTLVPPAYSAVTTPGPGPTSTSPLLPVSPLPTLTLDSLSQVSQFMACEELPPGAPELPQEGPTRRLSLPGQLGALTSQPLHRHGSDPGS
Sequence of Cytochrome P450 2C9 (P11712 whole entry): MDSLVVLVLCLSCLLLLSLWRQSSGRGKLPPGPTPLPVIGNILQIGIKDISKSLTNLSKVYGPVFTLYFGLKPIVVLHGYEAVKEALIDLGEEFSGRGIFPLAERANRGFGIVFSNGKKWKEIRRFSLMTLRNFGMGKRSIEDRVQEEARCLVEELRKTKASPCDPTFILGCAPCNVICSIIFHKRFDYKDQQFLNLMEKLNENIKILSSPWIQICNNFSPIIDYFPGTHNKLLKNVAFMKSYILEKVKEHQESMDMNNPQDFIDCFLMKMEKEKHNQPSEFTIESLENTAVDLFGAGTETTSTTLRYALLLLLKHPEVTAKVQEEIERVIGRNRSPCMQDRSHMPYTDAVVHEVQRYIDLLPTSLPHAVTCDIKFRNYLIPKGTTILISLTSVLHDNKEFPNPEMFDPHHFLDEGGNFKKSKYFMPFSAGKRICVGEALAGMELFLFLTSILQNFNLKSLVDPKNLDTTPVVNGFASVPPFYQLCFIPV

IC50 [9] [nM] | IC50 [11] [nM] | SMILES | IC50 [10] [nM] | further results
 |  | Cc1noc(/C(=C/c2cccc(-c3cc(C(C)(C)S(C)(=O)=O)cc4cccnc34)c2)c2ccc(S(C)(=O)=O)cc2)n1 |  | half-life [1]: 4 h; half-life [2]: 4 h; Cmax [3]: 3 µM; bioavailability [4]: 95%; inhibition in vivo at 0.5 mg/kg [5]: 92%; bioavailability [6]: 55%; half-life [7]: 5 h; bioavailability [8]: 33%
0.45 | 180 | O=C(Nc1c(Cl)cncc1Cl)c1cn(-c2ccc(Cl)cc2)c2ncccc2c1=O | 198 | 
9.2 | 700 | CC(C)NC(=O)c1cn(-c2cccc(Br)c2)c2ncccc2c1=O | 31600 | 
15.3 | 700 | CC(C)NC(=O)c1cn(-c2ccccc2)c2ncccc2c1=O | 71500 | 
1.54 | 840 | CCOc1cccc(-c2cccc(-n3cc(C(=O)NC(C)C)c(=O)c4cccnc43)c2)c1 | 2700 | 
> 1000 |  | CC(C)N(C)C(=O)c1cn(-c2cccc(Br)c2)c2ncccc2c1=O |  | 
3.54 | 2100 | CC(C)CNC(=O)c1cn(-c2cccc(Br)c2)c2ncccc2c1=O |  | 
> 1000 |  | Cc1ccc2c(=O)c(C(=O)NC(C)C)cn(-c3cccc(Br)c3)c2n1 |  | 
141 |  | NC(=O)c1cn(-c2cccc(Br)c2)c2ncccc2c1=O | > 94500 | 
0.37 | 470 | CC(=O)c1cccc(-c2cccc(-n3cc(C(=O)NC(C)C)c(=O)c4cccnc43)c2)c1 | 6960 | 
0.62 | 69 | CC(C)NC(=O)c1cn(-c2cccc(-c3ccc(S(C)(=O)=O)cc3)c2)c2ncccc2c1=O | 23000 | 
 | 670 | O=C(NC1CC1)c1cn(-c2cccc(-c3ccncc3)c2)c2ncccc2c1=O | 18600 | 
 | 140 | CS(=O)(=O)c1ccc(-c2cccc(-n3cc(C(=O)NC4CC4)c(=O)c4cccnc43)c2)cn1 | 13600 | 
0.75 | 650 | CSc1ccc(-c2cccc(-n3cc(C(=O)NC(C)C)c(=O)c4cccnc43)c2)cc1 | 960 | 
6.2 | 120 | CC(C)(O)c1ccc(-c2cccc(-n3cc(C(=O)NC4CC4)c(=O)c4cccnc43)c2)c[n+]1[O-] | 50100 | Ratio [12]: 530; half-life [1]: 4 h; half-life [2]: 1.5 h; Cmax [3]: 3.7 µM; bioavailability [4]: 87%; inhibition in vivo at 0.5 mg/kg [5]: 84%; bioavailability [6]: 100%; half-life [7]: 2 h; bioavailability [8]: 33%; IC50 [13]: 59000 nM; inhibition in vivo at 0.03 mg/kg [14]: 69%; IC50 [15]: 7 nM
0.06 | 3 | Cc1noc(/C(=C/c2cccc(-n3cc(C(=O)Nc4c(Cl)cncc4Cl)c(=O)c4cccnc43)c2)c2ccc(S(C)(=O)=O)cc2)n1 |  | 
66.5 |  | Cc1ccc(-n2cc(C(=O)NC(C)C)c(=O)c3cccnc32)cc1Br |  | 
0.17 | 5 | CC(=O)c1cccc(-c2cccc(-n3cc(C(=O)Nc4c(Cl)cncc4Cl)c(=O)c4cccnc43)c2)c1 |  | 
0.34 | 75 | CC(=O)c1ccc(-c2cccc(-n3cc(C(=O)NC(C)C)c(=O)c4cccnc43)c2)cc1 |  | 
 | 160 | O=C(NC1CC1)c1cn(-c2cccc(-c3cccnc3)c2)c2ncccc2c1=O |  | 
 | 300 | CC(C)(O)c1ccc(C#Cc2cccc(-n3cc(C(=O)NC4CC4)c(=O)c4cccnc43)c2)c[n+]1[O-] | 89400 | 
 | 66 | CC(C)(O)c1ccc(-c2cccc(-n3cc(C(=O)NC4CC4)c(=O)c4cccnc43)c2)cn1 |  | half-life [2]: < 0.5 h
 | 160 | O=C(NC1CC1)c1cn(-c2cccc(C#Cc3cccnc3)c2)c2ncccc2c1=O | 16700 | 
6.7 | 180 | O=C(NC1CC1)c1cn(-c2cccc(C#Cc3ccc[n+]([O-])c3)c2)c2ncccc2c1=O [MK-0873] |  | half-life [1]: 5 h; half-life [2]: 2 h; Cmax [3]: 5.1 µM; bioavailability [4]: 98%; inhibition in vivo at 0.5 mg/kg [5]: 84%; bioavailability [6]: 100%; half-life [7]: 2 h; bioavailability [8]: 38%; IC50 [13]: 41000 nM; inhibition in vivo at 0.03 mg/kg [14]: 65%; IC50 [15]: 23 nM
